The values that follow come from patent US9163021B2, “Pyrrolo[3,2-c]pyridine tropomyosin-related kinase inhibitors” (Pfizer Limited, priority 2012, dated 2015).

In this assay the target is TRKA (Homo sapiens (Human), UniProt P04629). In words: Isolated TRK enzyme assay (HTRF KinEASE-TK), PV3144 TrkA enzyme assay. Type of assay: biochemical. To be noted: arithmetic mean where more than one reading. An outline of the steps: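 Kinase (recombinant His-TrkA cytoplasmic domain, ATP-preactivated 20 min) met compound 20 min, then biotinylated TK substrate (1 µM final) with Mg2+/DTT buffer; HTRF detection.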
Chain of TRKA (P04629 441-796): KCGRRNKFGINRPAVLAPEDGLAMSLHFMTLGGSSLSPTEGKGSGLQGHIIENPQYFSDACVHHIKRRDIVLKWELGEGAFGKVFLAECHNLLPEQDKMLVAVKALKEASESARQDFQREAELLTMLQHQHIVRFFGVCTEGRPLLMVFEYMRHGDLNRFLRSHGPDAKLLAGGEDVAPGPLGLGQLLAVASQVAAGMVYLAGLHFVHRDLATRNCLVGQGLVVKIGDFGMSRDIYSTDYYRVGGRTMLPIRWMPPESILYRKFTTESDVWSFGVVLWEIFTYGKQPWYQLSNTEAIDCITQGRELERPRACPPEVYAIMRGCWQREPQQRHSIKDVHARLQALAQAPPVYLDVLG
(Time-resolved FRET reads energy transfer from a long-lived donor to a nearby acceptor.)
A word on the IC50: it is the point on the concentration scale where inhibition reaches its midpoint. Read a low IC50 as greater potency. As to `CC(C)n1cc(C(=O)c2ccnc(NC(=O)Cc3cnccn3)c2)c2cnccc21` [Example 110, N-(4-{[1-(propan-2-yl)-1H-pyrrolo[3,2-c]pyridin-3-yl]carbonyl}pyridin-2-yl)-2-(pyrazin-2-yl)acetamide], inhibition was half-maximal at 3330 nM (IC50).
The molecule `Cn1nc(C(C)(C)C)nc1CC(=O)Nc1cc(C(=O)c2cn(CCO)c3ccncc23)ccn1` [Example 154, 2-(3-tert-butyl-1-methyl-1H-1,2,4-triazol-5-yl)-N-(4-{[1-(2-hydroxyethyl)-1H-pyrrolo[3,2-c]pyridin-3-yl]carbonyl}pyridin-2-yl)acetamide] showed an IC50 of 1100 nM.
For `CC(C)n1cc(C(=O)c2ccnc(NC(=O)Cc3nnn[nH]3)c2)c2cnccc21` [Example 187] the value was 9800 nM; for `CC(C)n1cc(C(=O)c2cncc(NC(=O)Cn3cc(C(F)(F)F)nn3)c2)c2cnccc21` [Example 38, N-(5-{[1-(propan-2-yl)-1H-pyrrolo[3,2-c]pyridin-3-yl]carbonyl}pyridin-3-yl)-2[4-(trifluoromethyl)-1H-1,2,3-triazol-1-yl]acetamide], 147 nM.
With `CC(C)n1cc(C(=O)c2cncc(NC(=O)Cc3cccc(Cl)c3)c2)c2cnccc21` [Example 126, 2-(3-chlorophenyl)-N-(5-{[1-(propan-2-yl)-1H-pyrrolo[3,2-c]pyridin-3-yl]carbonyl}pyridin-3-yl)acetamide], half-maximal inhibition (IC50) required 28.6 nM.
The same measure for `CC(C)(CO)n1cc(C(=O)c2cncc(NC(=O)Cc3ccc(C#N)cc3)c2)c2cncc(F)c21` [Example 92, 2-(4-cyanophenyl)-N-(5-{[7-fluoro-1-(1-hydroxy-2-methylpropan-2-yl)-1H-pyrrolo[3,2-c]pyridin-3-yl]carbonyl}pyridin-3-yl)acetamide]: 39.8 nM; for `CC(C)n1cc(C(=O)c2ccnc(NC(=O)Cc3ccc(C(F)(F)F)c(F)c3)c2)c2cnccc21` [Example 172, 2-(3-fluoro-4-(trifluoromethyl)phenyl]-N-(4-{[1-(propan-2-yl)-1H-pyrrolo[3,2-c]pyridin-3-yl]carbonyl}-pyridin-2-yl)acetamide]: 8.49 nM.
The same measure for `CC(C)n1cc(C(=O)c2ccnc(NC(=O)Cc3cscn3)c2)c2cnccc21` [Example 181, N-(4-{[1-(propan-2-yl)-1H-pyrrolo[3,2-c]pyridin-3-yl]carbonyl}pyridin-2-yl)-2(1,3-thiazol-4-yl)acetamide]: 536 nM.
The same measure for `CC(C)n1cc(C(=O)c2ccnc(NC(=O)Cc3ccccc3OC(F)(F)F)c2)c2cnccc21` [Example 182, N-(4-{[1-(propan-2-yl)-1H-pyrrolo[3,2-c]pyridin-3-yl]carbonyl}pyridin-2-yl)-2-[2-(trifluoromethoxy)phenyl]acetamide]: 26.1 nM.
With `CC(C)(CO)n1cc(C(=O)c2cc(NC(=O)Cn3ccc(C(F)(F)F)n3)ccn2)c2cnccc21` [Example 10, N-(2-{[1-(1-hydroxy-2-methylpropan-2-yl)-1H-pyrrolo[3,2-c]pyridin-3-yl]carbonyl}pyridin-4-yl)-2-[3-(trifluoromethyl)-1H-pyrazol-1-yl]acetamide], 14 nM corresponded to half-maximal inhibition (IC50).
`CC(C)(CO)n1cc(C(=O)c2cncc(NC(=O)Cn3cc(C(F)(F)F)nn3)c2)c2cnccc21` [Example 13, N-(5-{[1-(1-hydroxy-2-methylpropan-2-yl)-1H-pyrrolo[3,2-c]pyridin-3-yl]carbonyl}pyridin-3-yl)-2-[4-(trifluoromethyl)-1H-1,2,3-triazol-1-yl]acetamide] returned an IC50 of 9.86 nM.
For `CC(CO)n1cc(C(=O)c2cc(NC(=O)Cc3ccc(Cl)cn3)ccn2)c2cnccc21` (single isomer, unassigned) [Example 86, 2-(5-chloropyridin-2-yl)-N-(2-{[1-(1-hydroxypropan-2-yl)-1H-pyrrolo[3,2-c]pyridin-3-yl]carbonyl}pyridin-4-yl)acetamide] the value was 93.2 nM; for `CC(C)n1cc(C(=O)c2ccnc(NC(=O)Cn3cc(C(F)(F)F)nn3)c2)c2cnccc21` [Example 163, N-(4-{[1-(propan-2-yl)-1H-pyrrolo[3,2-c]pyridin-3-yl]carbonyl}pyridin-2-yl)-2-[4-(trifluoromethyl)-1H-1,2,3-triazol-1-yl]acetamide], 10.7 nM; for `Cc1ccn(CC(=O)Nc2cc(C(=O)c3cn(CCO)c4ccncc34)ccn2)n1` [Example 150, N-(4-{[1-(2-hydroxyethyl)-1H-pyrrolo[3,2-c]pyridin-3-yl]carbonyl}pyridin-2-yl)-2-(3-methyl-1H-pyrazol-1-yl)acetamide], 3080 nM.
For `CC(C)n1cc(C(=O)c2cncc(NC(=O)Cc3ccc(Cl)cc3)c2)c2cnccc21` [Example 116, 2-(4-chlorophenyl)-N-(5-{[1-(propan-2-yl)-1H-pyrrolo[3,2-c]pyridin-3-yl]carbonyl}pyridin-3-yl)acetamide] the value was 11.3 nM.
The same measure for `CC(CO)n1cc(C(=O)c2cc(NC(=O)Cc3cccc(C(F)(F)F)c3)ccn2)c2cnccc21` (single isomer, unassigned) [Example 18, 2-(3-trifluoromethylphenyl)-N-(2-{[1-(1-hydroxypropan-2-yl)-1H-pyrrolo[3,2-c]pyridin-3-yl]carbonyl}pyridin-4-yl)acetamide]: 36.4 nM; for `O=C(Cc1ccc(F)cc1)Nc1cc(C(=O)c2cn(C3COC3)c3ccncc23)ccn1` [Example 204, 2-(4-fluorophenyl)-N-(4-{[1-(oxetan-3-yl)-1H-pyrrolo[3,2-c]pyridin-3-yl]carbonyl}pyridin-2-yl)acetamide]: 227 nM; for “N-(5-{[7-fluoro-1-(1-hydroxypropan-2-yl)-1H-pyrrolo[3,2-c]pyridin-3-yl]carbonyl}pyridin-3-yl)-2-[4-(trifluoromethyl)phenyl]acetamide [Example 209]”: 264 nM.
`CC(C)n1cc(C(=O)c2ccnc(NC(=O)Cc3nc(C4CC4)oc3C3CC3)c2)c2cnccc21` [Example 79, 2-(2,5-dicyclopropyl-1,3-oxazol-4-yl)-N-(4-{[1-(propan-2-yl)-1H-pyrrolo[3,2-c]pyridin-3-yl]carbonyl}pyridin-2-yl)acetamide]: the IC50 came out at 26.1 nM. This IC50 is about 10-fold lower than that of the molecule before.
`COc1ncc(C(=O)c2cn(C(C)C)c3ccncc23)cc1NC(=O)Cn1nc(C(F)(F)F)cc1C` [Example 48, N-(2-methoxy-5-{[1-(propan-2-yl)-1H-pyrrolo[3,2-c]pyridin-3-yl]carbonyl}pyridin-3-yl)-2-[5-methyl-3-(trifluoromethyl)-1H-pyrazol-1-yl]acetamide] had an IC50 of 33.8 nM. The IC50 values of the last two molecules are within 1.5-fold of each other.
Consider `CC(C)n1cc(C(=O)c2cncc(NC(=O)Cc3ccccc3)c2)c2cnccc21` [Example 130, 2-phenyl-N-(5-{[1-(propan-2-yl)-1H-pyrrolo[3,2-c]pyridin-3-yl]carbonyl}pyridin-3-yl)acetamide], for which half-maximal inhibition (IC50) required 161 nM.
The same measure for `COc1ccc(CC(=O)Nc2cc(C(=O)c3cn(C(C)C)c4ccncc34)ccn2)cc1` [Example 101, 2-(4-methoxyphenyl)-N-(4-{[1-(propan-2-yl)-1H-pyrrolo[3,2-c]pyridin-3-yl]carbonyl}pyridin-2-yl)acetamide]: 51.7 nM; for `CC(C)n1cc(C(=O)c2cncc(NC(=O)Cc3cn(C)cn3)c2)c2cnccc21` [Example 41, 2-(1-methyl-1H-imidazol-4-yl)-N-(5-{[1-(propan-2-yl)-1H-pyrrolo[3,2-c]pyridin-3-yl]carbonyl}pyridin-3-yl)acetamide]: 3330 nM; for `CC(C)n1cc(C(=O)c2cncc(NC(=O)Cc3nccn3C)c2)c2cnccc21` [Example 46, 2-(1-methyl-1H-imidazol-2-yl)-N-(5-{[1-(propan-2-yl)-1H-pyrrolo[3,2-c]pyridin-3-yl]carbonyl}pyridin-3-yl)acetamide]: 3080 nM.
The same measure for `Cc1oc(C2CC2)nc1CC(=O)Nc1cc(C(=O)c2cn(C3COC3)c3ccncc23)ccn1` [Example 200, 2-(2-cyclopropyl-5-methyl-1,3-oxazol-4-yl)-N-(4-{[1-(oxetan-3-yl)-1H-pyrrolo[3,2-c]pyridin-3-yl]carbonyl}pyridin-2-yl)acetamide]: 174 nM; for `COCCn1nc(C(C)(C)C)nc1CC(=O)Nc1cncc(C(=O)c2cn(C(C)C)c3ccncc23)c1` [Example 44, 2-[3-tert-butyl-1-(2-methoxyethyl)-1H-1,2,4-triazol-5-yl]-N-(5-{[1-(propan-2-yl)-1H-pyrrolo[3,2-c]pyridin-3-yl]carbonyl}pyridin-3-yl)acetamide]: 531 nM; for `CC(CO)n1cc(C(=O)c2cncc(NC(=O)Cc3cccc(C(F)(F)F)c3)c2)c2cnccc21` (single isomer, unassigned) [Example 36, N-(5-{[1-(1-hydroxypropan-2-yl)-1H-pyrrolo[3,2-c]pyridin-3-yl]carbonyl}pyridin-3-yl)-2-[3-(trifluoromethyl)phenyl]acetamide]: 44.7 nM.
The same measure for `CC(C)n1cc(C(=O)c2ccnc(NC(=O)Cc3ccc(C#N)cc3)c2)c2cnccc21` [Example 183, 2-(4-cyanophenyl)-N-(4-{[1-(propan-2-yl)-1H-pyrrolo[3,2-c]pyridin-3-yl]carbonyl}pyridin-2-yl)acetamide]: 17.7 nM; for `CC(C)(CO)n1cc(C(=O)c2cc(NC(=O)Cc3ccc(C#N)cc3)ccn2)c2cnccc21` [Example 9, 2-(4-cyanophenyl)-N-(2-{[1-(1-hydroxy-2-methylpropan-2-yl)-1H-pyrrolo[3,2-c]pyridin-3-yl]carbonyl}pyridin-4-yl)acetamide]: 97.8 nM; for `CC(C)n1cc(C(=O)c2ccnc(NC(=O)Cc3ccc(Cl)c(Cl)c3)c2)c2cnccc21` [Example 165, 2-(3,4-dichlorophenyl)-N-(4-{[1-(propan-2-yl)-1H-pyrrolo[3,2-c]pyridin-3-yl]carbonyl}pyridin-2-yl)acetamide]: 5.68 nM.
In turn, `CC(C)n1cc(C(=O)c2cncc(NC(=O)Cn3cc(C(F)(F)F)nn3)c2)c2cncc(F)c21` [Example 87, N-(5-{[7-fluoro-1-(propan-2-yl)-1H-pyrrolo[3,2-c]pyridin-3-yl]carbonyl}pyridin-3-yl)-2-[4-(trifluoromethyl)-1H-1,2,3-triazol-1-yl]acetamide] yielded an IC50 of 29 nM.
